Experimental data taken from ChEMBL document CHEMBL5726216, “Derivatives and methods of treating hepatitis B infections” (2019).

Assay: BDNA-assay: HBV replication inhibition by the compounds of this invention could be determined in cells infected or transfected with HBV, or cells with stably integrated HBV, such as HepG2.2.15 cells (Sells et al. 1987). In this example, HepG2.2.15 cells were maintained in cell culture medium containing 10% fetal bovine serum (FBS), Geneticin, L-glutamine, penicillin and streptomycin. HepG2.2.15 cells could be seeded in 96-well plates at a density of 40,000 cells/well and be treated with serially diluted compounds at a final DMSO concentration of 0.5% either alone or in combination by adding drugs in a checker box format. Cells were incubated with compounds for three days, after which medium was removed and fresh medium containing compounds was added to cells and incubated for another three days. At day 6, supernatant was removed and treated with DNase at 37° C. for 60 minutes, followed by enzyme inactivation at 75° C. for 15 minutes. Encapsidated HBV DNA was released from the virions and covalently linked HBV polymerase by incubating in lysis buffer (Affymetrix QS0010) containing […] proteinase K at 50° C. for 40 minutes. HBV DNA was denatured by addition of 0.2 M NaOH and detected using a branched DNA (BDNA) QuantiGene assay kit according to manufacturer recommendation (Affymetrix). HBV DNA levels could also be quantified using qPCR, based on amplification of encapsidated HBV DNA extraction with QuickExtraction Solution (Epicentre Biotechnologies) and amplification of HBV DNA using HBV specific PCR probes that can hybridize to HBV DNA and a fluorescently labeled probe for quantitation. In addition, cell viability of HepG2.2.15 cells incubated with test compounds alone or in combination was determined by using CellTitre-Glo reagent according to the manufacturer protocol (Promega). The mean background signal from wells containing only culture medium was subtracted from all other samples, and percent inhibition at each compound concentration was calculated by normalizing to signals from HepG2.2.15 cells treated with 0.5% DMSO using equation E1.

SMILES	EC50 [nM]
CCON(C)C(=O)c1n[nH]c2c1CN(C(=O)Nc1cccc(Cl)c1)CC2	< 100
CCCC(=O)c1n[nH]c2c1CN(C(=O)Nc1cccc(Cl)c1)CC2	< 100
CN(OC1CCOC1)C(=O)c1n[nH]c2c1CN(C(=O)Nc1cccc(Cl)c1)CC2 (stereo not given)	< 500
CN(O)C(=O)c1n[nH]c2c1CN(C(=O)Nc1cccc(Cl)c1)CC2	< 1000
CON(C(=O)c1n[nH]c2c1CN(C(=O)Nc1cccc(Cl)c1)CC2)C(C)C	< 500
O=C(Nc1cccc(Cl)c1)N1CCc2[nH]nc(C(=O)N3CCCO3)c2C1	< 500
CN1CC(ON(C)C(=O)c2n[nH]c3c2CN(C(=O)Nc2cccc(Cl)c2)CC3)C1	< 500
CC(C)CON(C)C(=O)c1n[nH]c2c1CN(C(=O)Nc1cccc(Cl)c1)CC2	< 500
CN(OC1CCC1)C(=O)c1n[nH]c2c1CN(C(=O)Nc1cccc(Cl)c1)CC2	< 100
CCCON(C)C(=O)c1n[nH]c2c1CN(C(=O)Nc1cccc(Cl)c1)CC2	< 500
CCN(OC)C(=O)c1n[nH]c2c1CN(C(=O)Nc1cccc(Cl)c1)CC2	< 100
O=C(Nc1cccc(Cl)c1)N1CCc2[nH]nc(C(=O)N3CC(O)CO3)c2C1 (stereo not given)	< 1000
CN(OCC1CC1)C(=O)c1n[nH]c2c1CN(C(=O)Nc1cccc(Cl)c1)CC2	< 500
CON(C)C(=O)c1n[nH]c2c1CN(C(=O)Nc1cccc(Cl)c1)CC2	< 100
COCCON(C)C(=O)c1n[nH]c2c1CN(C(=O)Nc1cccc(Cl)c1)CC2	< 500
CCC(=O)c1n[nH]c2c1CN(C(=O)Nc1cccc(Cl)c1)CC2	< 500
CN(C)N(C)C(=O)c1n[nH]c2c1CN(C(=O)Nc1cccc(Cl)c1)CC2	< 100
CN(OCCO)C(=O)c1n[nH]c2c1CN(C(=O)Nc1cccc(Cl)c1)CC2	< 500
CC(C)ON(C)C(=O)c1n[nH]c2c1CN(C(=O)Nc1cccc(Cl)c1)CC2	< 100
O=C(Nc1cccc(Cl)c1)N1CCc2[nH]nc(C(=O)N3CC(F)CO3)c2C1 (stereo not given)	< 100
